# From patent publication US20140037642A1, “METHODS AND COMPOSITIONS RELATING TO INHIBITION OF IGF-1R” (AMGEN INC., priority 2011, published 2014)
# Assays:
# [1] = test system: metastatic pancreatic cancer patients; assay: Placebo-controlled, randomized phase 2 study plus gemcitabine; type: in vivo, human
# Method: The primary endpoint was six month overall survival rate.
# Key inclusion criteria were histologically or cytologically documented metastatic adenocarcinoma of the pancreas, age eighteen years or older, ECOG PS 0 or 1, adequate hematologic, hepatic, renal, and coagulation function, amylase and lipase≦2.0×ULN, adequately controlled type 1 or 2 diabetes (amended during protocol to fasting blood glucose<[…] only), fasting blood glucose≦[…], HbAlc<8%, and written informed consent.
# Key exclusion criteria were uncontrolled cardiac disease and prior chemotherapy or radiation in the adjuvant or metastatic setting.
# [2] = test system: metastatic pancreatic cancer patients; assay: Overall survival in baseline circulating biomarker subgroups of the phase 2 study; type: in vivo, human; set-up: Median OS: unit not given here
# Text: To establish the relationship between levels of these baseline markers and overall survival, a Cox proportional hazard model was used to calculate hazard ratios (HR) using normalized log transformed marker concentrations. This analysis tests the risk of death associated with a unit increase in the normalized log baseline biomarker and this risk is expressed as a hazard ratio. Because of the small sample size, it is difficult to dissect prognostic associations from relationships that are modified by treatment with ganitumab relative to placebo, i.e., predictive. This is because the addition of treatment effect adds a variable to the analysis that compromises the power of the test masking significant predictive relationships that may exist. However even a prognostic relationship identified in this analysis is important because it informs the hypothesized relationship between circulating bioavailable ligands and the adaptation of the tumor to IGF-1R dependent progression, and in turn sensitivity to inhibitors that block IGF-1R or downstream signaling pathways.
# This allows a direct test of the predictive value of using these markers in a dichotomized way to predict OS in pancreatic cancer patients that are treated with inhibitors of IGF-1R.
# To represent these relationships Kaplan-Maier plots were generated that show the OS for the high and low subgroups by plotting the fraction of patients in each sub-group that survive against time.
# IGF-1R = IGF-1R (Homo sapiens, UniProt P08069); conditions: biphasic binding; read-out: KD of high affinity binding to IGF-1R; cited from earlier work
# [3] = patients with measurable disease at baseline, plus gemcitabine
# [4] = plus gemcitabine, conatumumab 10 mg/kg Q2W or ganitumab 12 mg/kg Q2W
# [5] = plus gemcitabine, conatumumab 10 mg/kg Q2W or ganitumab 12 mg/kg Q2W, listed as conatumumab
# [6] = versus placebo plus gemcitabine
substance,measurement,setting,value
"Conatumumab: conatumumab (AMG 655), amino acid sequences in FIG. 19; given with gemcitabine in the phase 2 study",Best Overall Response: Confirmed CR - n (%),[1]; [3],0 (0) n (%)
same,Best Overall Response: Confirmed PR - n (%),[1]; [3],1 (3) n (%)
same,Best Overall Response: PD - n (%),[1]; [3],12 (32) n (%)
same,Best Overall Response: SD (Includes Unconfirmed PR) - n (%),[1]; [3],22 (58) n (%)
same,Best Overall Response: Unconfirmed PR - n (%),[1]; [3],2 (5) n (%)
same,Best Overall Response: Unknown - n (%),[1]; [3],3 (8) n (%)
same,"Abdominal pain, grade 3-5",[1]; plus gemcitabine,7 (17) n (%)
same,"Anemia, grade 3-5",[1]; plus gemcitabine,4 (10) n (%)
same,"Aspartate Aminotransferase Increased, grade 3-5",[1]; plus gemcitabine,3 (7) n (%)
same,"Deep Vein Thrombosis, grade 3-5",[1]; plus gemcitabine,4 (10) n (%)
same,"Fatigue, grade 3-5",[1]; plus gemcitabine,5 (12) n (%)
same,"Hyperbilirubinemia, grade 3-5",[1]; plus gemcitabine,2 (5) n (%)
same,"Hyperglycemia, grade 3-5",[1]; plus gemcitabine,1 (2) n (%)
same,"Hypotension, grade 3-5",[1]; plus gemcitabine,3 (7) n (%)
same,"Neutropenia, grade 3-5",[1]; plus gemcitabine,9 (22) n (%)
same,"Pulmonary Embolism, grade 3-5",[1]; plus gemcitabine,1 (2) n (%)
same,"Thrombocytopenia, grade 3-5",[1]; plus gemcitabine,7 (17) n (%)
same,rate of SD+PR,[1]; plus gemcitabine,61%
same,6-Month OS Rate (95% CI),[1]; [4],"59% (42, 73)"
same,12-Month OS Rate (95% CI),[1]; [4],"20% (9, 34)"
same,"Median OS, Months (95% CI)",[1]; [4],"7.5 (4.8, 10.0) Months"
same,"Median PFS, Months (95% CI)",[1]; [4],"4.0 (3.3, 5.0) Months"
same,6-Month OS Rate (95% CI),[1]; [5],59%
same,"Median PFS, Months (95% CI)",[1]; [5],4.0 Months
same,"Number of Patients Reporting ≧1 AE, grade 3-5","[1]; plus gemcitabine, conatumumab N = 41, ganitumab N = 40",36 (88) n (%)
same,"Stratified HR (95% CI), OS",[1]; [6],"0.87 (0.53, 1.43)"
same,"Stratified HR (95% CI), PFS",[1]; [6],"0.65 (0.41, 1.05)"
same,"Stratified HR (95% CI), PFS","[1]; versus placebo plus gemcitabine, listed as conatumumab",0.65
same,Median OS,[2]; IGF-2 High (>=median),214
same,"OS HR, treatment vs placebo",[2]; IGF-2 High (>=median),0.56
same,Median OS,[2]; IGF-2 Low (<median),263
same,"OS HR, treatment vs placebo",[2]; IGF-2 Low (<median),1.08
same,Median OS,[2]; IGF-BP1 High (>=median),178
same,"OS HR, treatment vs placebo",[2]; IGF-BP1 High (>=median),0.77
same,Median OS,[2]; IGF-BP1 Low (<median),254
same,"OS HR, treatment vs placebo",[2]; IGF-BP1 Low (<median),0.68
same,Median OS,[2]; IGF-BP2 High (>=median),178
same,"OS HR, treatment vs placebo",[2]; IGF-BP2 High (>=median),0.69
same,Median OS,[2]; IGF-BP2 Low (<median),244
same,"OS HR, treatment vs placebo",[2]; IGF-BP2 Low (<median),0.91
same,Median OS,[2]; IGF-BP3 High (>=median),244
same,"OS HR, treatment vs placebo",[2]; IGF-BP3 High (>=median),0.77
same,Median OS,[2]; IGF-BP3 Low (<median),129
same,"OS HR, treatment vs placebo",[2]; IGF-BP3 Low (<median),0.86
same,Median OS,[2]; IGF-BP4 High (>=median),216
same,"OS HR, treatment vs placebo",[2]; IGF-BP4 High (>=median),0.97
same,Median OS,[2]; IGF-BP4 Low (<median),216
same,"OS HR, treatment vs placebo",[2]; IGF-BP4 Low (<median),0.86
same,Median OS,[2]; Total IGF-1 High (>=median),231
same,"OS HR, treatment vs placebo",[2]; Total IGF-1 High (>=median),0.56
same,Median OS,[2]; Total IGF-1 Low (<median),178
same,"OS HR, treatment vs placebo",[2]; Total IGF-1 Low (<median),0.53
"IGF-2: insulin-like growth factor, ligand of IGF-1R",Kd,IGF-1R,~0.2 nM
